Assay results reported in patent US9447136B2, “Semisynthetic derivatives of Nystatin A1” (BLIRT S.A., priority 2012, dated 2016).

What was measured:
[1] = test system: Candida albicans ATCC 10231; experiment: Antifungal activity in vitro, serial dilution in RPMI 1640; format: cell-based; settings: Table 2A, RPMI 1640, pH 7.0; for Antifungal activity Candida albicans ATCC 10231 IC50: A531 50% of control; for Antifungal activity Candida albicans ATCC 10231 MIC: A531 at most 20% of control
Description: (§1) For the determination of antifungal activity in vitro we used method of serial dilution in buffered medium RPMI 1640, pH 7.0, in a 96-wells microplates, according to the standard procedure (National Committee for Clinical Laboratory Standards. Reference method for broth dilution antifungal susceptibility testing of yeast, approved standard, 2nd ed. M27-A2 vol. 22 Wayne, Pa., 2002). The optical density of cells suspension was measured using a microplates reader (Victor^3, Perkin-Elmer) at the wavelength λ=531 nm (A531). On the basis of obtained results the diagrams of relation between A531 values and concentration of examined compound were made. From these graphs, the IC50 values were read, which were the interpolated concentrations of a tested compound, at which the A531 value was exactly 50% of the A531 value for the control sample. Moreover, MIC values, that are the lowest concentration of tested compound at which the A531 value were at most 20% of the A531 value measured for the control sample.

[2] = test system: Saccharomyces cerevisiae ATCC 9763; experiment: as above; format: cell-based; settings: Table 2A; RPMI 1640, pH 7.0; A531 at most 20% of control
Description: as §1

[3] = test system: Candida lusitaniae DSM 70102; experiment: as above; format: cell-based; settings: Table 2A; RPMI 1640, pH 7.0
Description: as §1

[4] = test system: Candida tropicalis KKP 334; experiment: as above; format: cell-based; settings: Table 2A; RPMI 1640, pH 7.0
Description: as §1

[5] = test system: Candida glabrata DSM 11226; experiment: as above; format: cell-based; settings: Table 2A; RPMI 1640, pH 7.0
Description: as §1

Candida krusei DSM 6128 = experiment: as above; format: cell-based; settings: Table 2A; RPMI 1640, pH 7.0
Description: as §1

Human erythrocytes = experiment: Hemotoxicity (hemolytic activity); settings: human erythrocytes; concentration causing 10% of hemolysis
Description: The hemotoxicity determination were carried out by the serial dilutions method, according to the procedure described earlier (Ślisz, M., et al., E., J Antibiot 57: 669-678 (2004)). Human erythrocytes were suspensed in the solution of saline to obtain a cell density of suspension 2×10^7/ml. Suitable amounts of diluted solutions of compounds were added to the cell suspension in tubes and were incubated at 37° C. for 30 minutes and then centrifuged (1700×g, 10 min, 4° C.). The concentration of hemoglobin in supernatant after centrifugation of erythrocytes suspension were determined by measuring the absorbance at wavelength λ=540 nm (A540). The maximum level of hemolysis was obtained after incubation of cells suspension in the presence of 0.1% Tritone X-100 (control sample). […] From these graphs, the EH50 values were read which are the interpolated concentrations of compound, for which the A540 value is exactly 50% of the A540 value measured for the control sample.

Row | Compound | Antifungal activity Candida albicans ATCC 10231 IC50 [1] [µg/mL] | Antifungal activity Candida albicans ATCC 10231 MIC [1] [µg/mL] | Antifungal activity Saccharomyces cerevisiae ATCC 9763 MIC [2] [µg/mL] | Antifungal activity Candida lusitaniae DSM 70102 MIC [3] [µg/mL] | Antifungal activity Candida tropicalis KKP 334 MIC [4] [µg/mL] | Antifungal activity Candida glabrata DSM 11226 MIC [5] [µg/mL] | Antifungal activity Candida krusei DSM 6128 MIC (Candida krusei DSM 6128) [µg/mL] | EH10 (Human erythrocytes) [µg/mL]
1 | N,N-diethylnystatin A1 [Compound N24] | 3.82 | 8 | 8 | 4 | 8 | 16 | 16 | –
2 | C[C@@H]1[C@H](O)[C@@H](C)/C=C/C=C/CC/C=C/C=C/C=C/C=C/[C@H](O[C@@H]2O[C@H](C)[C@@H](O)[C@H](NC(=S)NCCN(C)C)[C@@H]2O)C[C@@H]2O[C@](O)(C[C@@H](O)C[C@@H](O)[C@H](O)CC[C@@H](O)C[C@@H](O)CC(=O)O[C@H]1C)C[C@H](O)[C@H]2C(=O)O [Compound N18, N-{3-[2-(N,N-dimethylamino)ethyl]thioureidyl}nystatin A1] | 2.97 | 4 | 4 | 4 | 4 | 8 | 8 | –
3 | N-{3-[2-(piperidin-1-yl)ethyl]thioureidyl}nystatin A1 [Compound N12] | 4.20 | 8 | 8 | 4 | 8 | 8 | 16 | –
4 | C[C@@H]1[C@H](O)[C@@H](C)/C=C/C=C/CC/C=C/C=C/C=C/C=C/[C@H](O[C@@H]2O[C@H](C)[C@@H](O)[C@H](NC(=S)NCCN3CCCC3)[C@@H]2O)C[C@@H]2O[C@](O)(C[C@@H](O)C[C@@H](O)[C@H](O)CC[C@@H](O)C[C@@H](O)CC(=O)O[C@H]1C)C[C@H](O)[C@H]2C(=O)O [Compound N16, N-{3-[2-(pyrrolidin-1-yl)ethyl]thioureidyl}nystatin A1] | 3.04 | 4 | 4 | 4 | 4 | 8 | 8 | –
5 | CC1OC(O[C@H]2/C=C/C=C/C=C/C=C/CC/C=C/C=C/[C@H](C)[C@@H](O)[C@@H](C)[C@H](C)OC(=O)C[C@H](O)C[C@H](O)C[C@H](O)CC[C@@H](O)[C@H](O)CC3(O)C[C@H](O)[C@@H](C(=O)O)[C@H](C2)O3)C(O)C(NC2CC(=O)N(CCN3CCN(C)CC3)C2=O)C1O (stereo partly drawn) [Compound N9, N—[N′-2-(4-methylpiperazin-1-yl)ethylsuccinimidyl]nystatin A1] | 5.62 | 8 | 8 | 4 | 8 | 16 | 16 | –
6 | CC1OC(O[C@H]2/C=C/C=C/C=C/C=C/CC/C=C/C=C/[C@H](C)[C@@H](O)[C@@H](C)[C@H](C)OC(=O)C[C@H](O)C[C@H](O)C[C@H](O)CC[C@@H](O)[C@H](O)CC3(O)C[C@H](O)[C@@H](C(=O)O)[C@H](C2)O3)C(O)C(NC2CC(=O)N(CC(C)(C)CN(C)C)C2=O)C1O (stereo partly drawn) [Compound N10, N—[N′-3-(N″,N″-dimethylamino)-2,2-dimethylpropylsuccinimidyl]nystatin A1] | 5.47 | 8 | 8 | 4 | 8 | 16 | 16 | –
7 | CC1C=CC=CCCC=CC=CC=CC=CC(OC2OC(C)C(O)C(N(CCCN(C)C)CC3(O)OCC(O)C(O)C3O)C2O)CC2OC(O)(CC(O)C(O)CCC(O)CC(O)CC(O)CC(=O)OC(C)C(C)C1O)CC(O)C2C(=O)O (stereo not drawn) [Compound N30, N-fructosyl-N-[3-(N′,N′-dimethylamin)propyl]nystatin A1] | 5.79 | 8 | 8 | 8 | 16 | 16 | 16 | –
8 | C[C@@H]1[C@H](O)[C@@H](C)/C=C/C=C/CC/C=C/C=C/C=C/C=C/[C@H](O[C@@H]2O[C@H](C)[C@@H](O)[C@H](NC(=S)NCCN3CCN(C)CC3)[C@@H]2O)C[C@@H]2O[C@](O)(C[C@@H](O)C[C@@H](O)[C@H](O)CC[C@@H](O)C[C@@H](O)CC(=O)O[C@H]1C)C[C@H](O)[C@H]2C(=O)O [Compound N15, N-{3-[2-(4-methylpiperazin-1-yl)ethyl]thioureidyl}nystatin A1] | 5.74 | 8 | 8 | 4 | 8 | 16 | 16 | –
9 | N—[N′-2-(pyrrolidin-1-yl)ethylsuccinimidyl]nystatin A1 [Compound N11] | 3.91 | 8 | 8 | 4 | 8 | 8 | 8 | –
10 | N-{3-[3-(imidazo-1-yl)propyl]thioureidyl}nystatin A1 [Compound N20] | 6.47 | 8 | 8 | 8 | 8 | 16 | 16 | –
11 | C[C@@H]1[C@H](O)[C@@H](C)/C=C/C=C/CC/C=C/C=C/C=C/C=C/[C@H](O[C@@H]2O[C@H](C)[C@@H](O)[C@H](NC3CC(=O)N(CCCN(C)C)C3=O)[C@@H]2O)C[C@@H]2O[C@](O)(C[C@@H](O)C[C@@H](O)[C@H](O)CC[C@@H](O)C[C@@H](O)CC(=O)O[C@H]1C)C[C@H](O)[C@H]2C(=O)O (stereo partly drawn) [Compound N6, N—[N′-3-(N″,N″-dimethylamino)propylsuccinimidyl]nystatin A1] | 5.52 | 8 | 8 | 4 | 8 | 16 | 16 | –
12 | CNC(C)(C)C(=O)NC1C(O)C(C)OC(O[C@H]2/C=C/C=C/C=C/C=C/CC/C=C/C=C/[C@H](C)[C@@H](O)[C@@H](C)[C@H](C)OC(=O)C[C@H](O)C[C@H](O)C[C@H](O)CC[C@@H](O)[C@H](O)CC3(O)C[C@H](O)[C@@H](C(=O)O)[C@H](C2)O3)C1O (stereo partly drawn) [Compound N43, N-[2-(N-methylamino)-2-methylpropan]nystatin A1] | 5.46 | 8 | 8 | – | 8 | 8 | 16 | 283.84
